# Experimental data from patent US7230028B2, “Dimeric compounds and their use as anti-viral agents” (priority 2001, dated 2007).
# Where “and” joins values, the source holds several entries; their conditions need not be identical. Identical values can stand only once. Counter-ions that a name gives are not always drawn. Like-named read-outs stand apart in the source and are kept apart here.
# Columns and labels:
# Influenza B/Harbin/7/95 = experiment: Cytopathic effect (CPE) assay, inhibition of influenza virus replication in MDCK cells; format: cell-based
# Influenza A/Sydney/5/97 = experiment: as above; format: cell-based
# [1] = tested on: A/Victoria/3/75 BVLV017 (H3N2); experiment: Plaque reduction assay (PRA) in MDCK cells; format: cell-based; details: for EC50: Influenza A virus
# B/Victoria/1/67 = experiment: Plaque reduction assay (PRA) in MDCK cells; format: cell-based, influenza B; details: bis(trifluoroacetic acid salt)
# B/Hong Kong/5/72 BVLV012 = experiment: Plaque reduction assay (PRA) in MDCK cells; format: cell-based, influenza B; details: for EC50: Influenza B virus, MDCK, read-out: EC50 PRA B/HongK
# Procedure: (§1) Madin Darby Canine Kidney (MDCK) cells are seeded into six well tissue culture plates and grown to confluency via standard methods. Influenza viruses are diluted in a minimal volume of phosphate buffered saline supplemented with 0.2% bovine serum albumin to yield an estimated titre of 50–100 plaque forming units (pfu) per well. After adsorption to the MDCK cells for one hour at 37° C. in a 5% CO2 atmosphere the viral inocula is aspirated and replaced with viral growth media (minimal Eagle's media supplemented with BSA, trypsin and insulin/transferrin/selenium at optimal concentrations) containing sufficient agar or agarose (generally 1–2%) to cause the media to gel at room temperature and at 37° C. in a 5% CO2 atmosphere until plaques develop (generally 2–4 days). Plaques can be visualised with a suitable stain (e.g. 0.4% crystal violet in formal saline) before counting.
# [2] = Rat lung retention assay (intra-tracheal dosing); format: in vivo; details: for Mean (cmpd) / (cmpd): 0.1 mg/kg intra-tracheal; for (cmpd) / PCT AU01/01128 compound 3 ng/g: individual animal; for (cmpd): bis(trifluoroacetic acid salt)
# Procedure: Rodents are anaesthetised and dosed with compound of interest by the intra-tracheal route at a dose volume of 0.8 ml/kg. The rodent is then held in the vertical position until full recovery is achieved. […] Any analytical method suitable for detection of this type of compound may be used. The time at which levels of compound fall below the sensitivity of the analytical techniques identified will determine the residency time of the compound in lung tissue.
# Please note that all experiments included a co-dosed internal standard, namely compound 3 of International Patent Publication No. WO 02/20514, to permit comparison. The data are expressed as a ratio with respect to this compound, the structure of which is shown below.
# A/WSN/33 BVLV09 (H1N1) = experiment: Plaque reduction assay (PRA) in MDCK cells; format: cell-based, influenza A H1N1; details: A/WSN/33 (H1N1)
# Procedure: as §1
# [3] = tested on: A/New Caledonia/20/99 BVLV008 (H1N1); experiment: Plaque reduction assay (PRA) in MDCK cells; format: cell-based; details: for EC50: Influenza A virus
# [4] = tested on: B/Yamanashi/166/98 BVLV007; experiment: Plaque reduction assay (PRA) in MDCK cells; format: cell-based; details: for EC50: Influenza B virus, MDCK
# [5] = tested on: A/Sydney/5/97 BVLV015 (H3N2); experiment: Plaque reduction assay (PRA) in MDCK cells; format: cell-based, influenza A H3N2; details: A/Sydney/5/97 (H3N2)
# Procedure: as §1
# [6] = tested on: A/Panama/2007/99 BVLV008 (H3N2); experiment: Plaque reduction assay (PRA) in MDCK cells; format: cell-based; details: for EC50: Influenza A virus
# [7] = tested on: A/Bayern/7/95 BVL006 (H1N1); experiment: Plaque reduction assay (PRA) in MDCK cells; format: cell-based, influenza A H1N1; details: A/Bayern/7/95 (H1N1)
# Procedure: as §1
# [8] = H1N1, MDCK, read-out: EC50 PRA A/New, plaque reduction, A/New Caledonia/20/99 (H1N1)
# [9] = read-out: EC50 PRA B/Yam, plaque reduction, B/Yamanashi/166/98
# [10] = rat, in vivo, 0.1 mg/kg, Mean (cmpd) ng/g
# [11] = plaque reduction, B/Yamanashi/166/98
# [12] = rat lung, co-dosed internal standard, 48 hrs
structure (smiles),measurement,setting,value
"CC(=O)N[C@H]1[C@H]([C@H](OC(=O)NCCCCCCCCCCNC(=O)O[C@@H]([C@@H]2OC(C(=O)O)=C[C@H](NC(=N)N)[C@H]2NC(C)=O)[C@H](O)CO)[C@H](O)CO)OC(C(=O)O)=C[C@@H]1NC(=N)N.O=C(O)C(F)(F)F.O=C(O)C(F)(F)F [Example 1, (2R,3R,4S)-3-(acetylamino)-2-{(1R,18R,19R)-18-((2R,3R,4S)-3-(acetylamino)-4-{[amino(imino)methyl]amino}-6-carboxy-3,4-dihydro-2H-pyran-2-yl)-1-[(1R)-1,2-dihydroxyethyl]-19,20-dihydroxy-3,16-dioxo-2,17-dioxa-4,15-diazaicos-1-yl}-4-{[amino(imino)methyl]amino}-3,4-dihydro-2H-pyran-6-carboxylic acid bis(trifluoroacetic acid salt)]",ID50 B/Harbin/7/95,"Influenza B/Harbin/7/95; up to 72 hours, MTT",0.0001 µg/mL
same,ID50 A/Sydney/5/97,"Influenza A/Sydney/5/97; up to 72 hours, MTT",0.0002 µg/mL
"CC(=O)N[C@H]1[C@H]([C@H](OC(=O)NCCCCCCCCCCCCNC(=O)O[C@@H]([C@@H]2OC(C(=O)O)=C[C@H](NC(=N)N)[C@H]2NC(C)=O)[C@H](O)CO)[C@H](O)CO)OC(C(=O)O)=C[C@@H]1NC(=N)N.O=C(O)C(F)(F)F.O=C(O)C(F)(F)F [Example 3, (2R,3R,4S)-3-(acetylamino)-2-{(1R,20R,21R)-20-((2R,3R,4S)-3-(acetylamino)-4-{[amino(imino)methyl]amino}-6-carboxy-3,4-dihydro-2H-pyran-2-yl)-1-[(1R)-1,2-dihydroxyethyl]-21,22-dihydroxy-3,18-dioxo-2,19-dioxa-4,17-diazadocos-1-yl}-4-{[amino(imino)methyl]amino}-3,4-dihydro-2H-pyran-6-carboxylic acid bis(trifluoroacetic acid salt)]",EC50 PRA A/Vic,"[1]; plaque reduction, A/Victoria/3/75 (H3N2)",0.0023 ng/mL
same,ID50 B/Harbin/7/95,"Influenza B/Harbin/7/95; up to 72 hours, MTT","0.0001, 0.0001 μg/ml"
same,EC50 PRA B/Vic,B/Victoria/1/67,0.01 ng/mL
same,ID50 A/Sydney/5/97,Influenza A/Sydney/5/97; molar,0.087 M
same,ID50 A/Sydney/5/97,"Influenza A/Sydney/5/97; up to 72 hours, MTT","0.0001, 0.0001 μg/ml"
same,EC50 PRA B/HongK,B/Hong Kong/5/72 BVLV012,<0.0001 ng/mL
same,Mean (cmpd),"[2]; rat lung, 48 hrs",1117 ng/g
same,Mean (cmpd),"[2]; rat lung, 168 hrs",376 ng/g
same,(cmpd),"[2]; rat lung, 48 hrs, 0.1 mg/kg",591 ng/g and 1845 ng/g and 914 ng/g
same,(cmpd),"[2]; rat lung, 168 hrs, 0.1 mg/kg",471 ng/g and 546 ng/g and 111 ng/g
"CC(=O)N[C@H]1[C@H]([C@H](OC(=O)NCCCCCCCCCCCCCNC(=O)O[C@@H]([C@@H]2OC(C(=O)O)=C[C@H](NC(=N)N)[C@H]2NC(C)=O)[C@H](O)CO)[C@H](O)CO)OC(C(=O)O)=C[C@@H]1NC(=N)N [Example 4, (2R,3R,4S)-3-(acetylamino)-2-{(1R,21R,22R)-21-((2R,3R,4S)-3-(acetylamino)-4-{[amino(imino)methyl]amino}-6-carboxy-3,4-dihydro-2H-pyran-2-yl)-1-[(1R)-1,2-dihydroxyethyl]-22,23-dihydroxy-3,19-dioxo-2,20-dioxa-4,18-diazatricos-1-yl}-4-{[amino(imino)methyl]amino}-3,4-dihydro-2H-pyran-6-carboxylic acid bis(trifluoroacetic acid salt)]",EC50,"A/WSN/33 BVLV09 (H1N1); Influenza A virus, MDCK",< 0.0001 ng/mL
same,EC50,[3]; [8],0.043 ng/mL
same,EC50,[4]; [9],< 0.0001 ng/mL
same,ID50 B/Harbin/7/95,"Influenza B/Harbin/7/95; up to 72 hours, MTT",0.0001 µg/mL
same,EC50,"[5]; Influenza A virus, MDCK, read-out: EC50 PRA A/Syd",< 0.0001 ng/mL
same,ID50 A/Sydney/5/97,"Influenza A/Sydney/5/97; up to 72 hours, MTT",0.0001 µg/mL
same,EC50,B/Hong Kong/5/72 BVLV012,0.06 ng/mL
same,EC50,"[6]; H3N2, MDCK, read-out: EC50 PRA A/Pan, plaque reduction, A/Panama/2007/99 (H3N2)",< 1e-05 ng/mL
same,Ratio Mean (lung) (cmpd)/PCT AU01/01128 compound 3,"[2]; rat, in vivo, 0.1 mg/kg, 48 h",1.70
same,Ratio Mean (lung) (cmpd)/PCT AU01/01128 compound 3,"[2]; rat, in vivo, 0.1 mg/kg, 168 h",1.48
same,concentration at 48 h,[2]; [10],1770 ng/g
same,concentration at 168 h,[2]; [10],756 ng/g
CC(=O)N[C@H]1[C@H]([C@H](OC(=O)NCCCCCCCCCCCCCCNC(=O)O[C@@H]([C@@H]2OC(C(=O)O)=C[C@H](NC(=N)N)[C@H]2NC(C)=O)[C@H](O)CO)[C@H](O)CO)OC(C(=O)O)=C[C@@H]1NC(=N)N.O=C(O)C(F)(F)F.O=C(O)C(F)(F)F [Example 5],EC50 PRA A/Bay,[7],<0.0001 ng/mL
same,EC50 PRA A/WSN,A/WSN/33 BVLV09 (H1N1),<0.0001 ng/mL
same,EC50 PRA A/New,"[3]; plaque reduction, A/New Caledonia/20/99 (H1N1)",<0.0001 ng/mL
same,EC50 PRA B/Yam,[4]; [11],<0.0001 ng/mL
same,ID50 B/Harbin/7/95,Influenza B/Harbin/7/95; molar,0.26 M
same,ID50 B/Harbin/7/95,"Influenza B/Harbin/7/95; up to 72 hours, MTT",0.0003 µg/mL
same,EC50 PRA B/Vic,B/Victoria/1/67,0.1 ng/mL
same,EC50 PRA A/Syd,[5],0.032 ng/mL
same,ID50 A/Sydney/5/97,"Influenza A/Sydney/5/97; up to 72 hours, MTT",0.0001 µg/mL
same,EC50 PRA B/HongK,B/Hong Kong/5/72 BVLV012,0.37 ng/mL
same,EC50 PRA A/Pan,"[6]; plaque reduction, A/Panama/2007/99 (H3N2)",0.032 ng/mL
same,Mean (cmpd),"[2]; rat lung, 48 hrs",4803 ng/g
same,Mean (cmpd),"[2]; rat lung, 168 hrs",1798 ng/g
same,(cmpd),"[2]; rat lung, 48 hrs, 0.1 mg/kg",3044 ng/g and 6268 ng/g and 5097 ng/g
same,(cmpd),"[2]; rat lung, 168 hrs, 0.1 mg/kg",2750 ng/g and 1255 ng/g and 1388 ng/g
"NC12CC3CC(CC(C3)C1)C2 [Amantadine, reference compound]",EC50,"[1]; H3N2, MDCK, read-out: EC50 PRA A/Vic, plaque reduction, A/Victoria/3/75 (H3N2)",220 ng/mL
same,EC50,[3]; [8],11 ng/mL
same,EC50,[4]; [9],2060 ng/mL
same,EC50,B/Hong Kong/5/72 BVLV012,> 10000 ng/mL
CCOC(=O)C1=C[C@@H](OC(CC)CC)[C@H](NC(C)=O)[C@@H](N)C1 [Oseltamivir],EC50,"[1]; MDCK, plaque reduction, A/Victoria/3/75 (H3N2), read-out: EC50 PRA A/Vic",0.11 ng/mL
same,EC50,"[3]; MDCK, plaque reduction, A/New Caledonia/20/99 (H1N1), read-out: EC50 PRA A/New",0.23 ng/mL
same,EC50,"[4]; plaque reduction, B/Yamanashi/166/98, read-out: EC50 PRA B/Yam",0.7 ng/mL
same,EC50,B/Hong Kong/5/72 BVLV012,32 ng/mL
same,EC50,"[6]; MDCK, plaque reduction, A/Panama/2007/99 (H3N2), read-out: EC50 PRA A/Pan",0.3 ng/mL
"CC(=O)N[C@H]1[C@H]([C@H](OC(=O)NCCCCCCCCCCCNC(=O)O[C@@H]([C@@H]2OC(C(=O)O)=C[C@H](NC(=N)N)[C@H]2NC(C)=O)[C@H](O)CO)[C@H](O)CO)OC(C(=O)O)=C[C@@H]1NC(=N)N.O=C(O)C(F)(F)F.O=C(O)C(F)(F)F [Example 2, (2R,3R,4S)-3-(acetylamino)-2-{(1R,19R,20R)-19-((2R,3R,4S)-3-(acetylamino)-4-{[amino(imino)methyl]amino}-6-carboxy-3,4-dihydro-2H-pyran-2-yl)-1-[(1R)-1,2-dihydroxyethyl]-20,21-dihydroxy-3,17-dioxo-2,18-dioxa-4,16-diazahenicos-1-yl}-4-{[amino(imino)methyl]amino}-3,4-dihydro-2H-pyran-6-carboxylic acid bis(trifluoroacetic acid salt)]",EC50 PRA B/Yam,[4]; [11],<0.0001 ng/mL
same,ID50 B/Harbin/7/95,"Influenza B/Harbin/7/95; up to 72 hours, MTT",0.0001 µg/mL
same,EC50 PRA B/Vic,B/Victoria/1/67,0.04 ng/mL
same,EC50 PRA A/Syd,[5],<0.0001 ng/mL
same,ID50 A/Sydney/5/97,"Influenza A/Sydney/5/97; up to 72 hours, MTT",0.0001 µg/mL
CC(=O)N[C@H]1[C@H]([C@H](OC(=O)NCCCCCCNC(=O)CN(CCN(CC(=O)NCCCCCCNC(=O)O[C@H](C(O)CO)[C@@H]2OC(C(=O)O)=C[C@H](NC(=N)N)[C@H]2NC(C)=O)CC(=O)NCCCCCCNC(=O)O[C@H](C(O)CO)[C@@H]2OC(C(=O)O)=C[C@H](NC(=N)N)[C@H]2NC(C)=O)CC(=O)NCCCCCCNC(=O)O[C@H](C(O)CO)[C@@H]2OC(C(=O)O)=C[C@H](NC(=N)N)[C@H]2NC(C)=O)[C@H](O)CO)OC(C(=O)O)=C[C@@H]1NC(=N)N (stereo partly drawn) [PCT AU01/01128 compound 3],Mean (PCT AU01/01128 compound 3),[2]; [12],1478 ng/g and 1368 ng/g and 1413 ng/g
same,PCT AU01/01128 compound 3 ng/g,[2]; [12],1098 ng/g and 1352 ng/g and 681 ng/g and 784 ng/g and 2046 ng/g and 1605 ng/g and 698 ng/g and 1901 ng/g and 1507 ng/g and 655 ng/g and 1840 ng/g and 1744 ng/g
same,PCT AU01/01128 compound 3 ng/g,"[2]; rat lung, co-dosed internal standard, 168 hrs",580 ng/g and 829 ng/g and 636 ng/g and 524 ng/g and 367 ng/g and 632 ng/g and 242 ng/g (2×) and 216 ng/g and 815 ng/g and 925 ng/g and 512 ng/g
same,concentration at 48 h,"[2]; rat, in vivo, rat lung, co-dosed internal standard, 48 hrs, read-out: Mean (PCT AU01/01128 compound 3)",1040 ng/g
